One test deals with T1, FKBP51 (Homo sapiens, UniProt Q13451).
T1 sequence (Q13451 42-130 limits assumed): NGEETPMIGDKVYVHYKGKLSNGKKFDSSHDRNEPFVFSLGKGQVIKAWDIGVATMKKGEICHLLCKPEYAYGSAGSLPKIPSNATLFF
The test can be described thus: Fluorescence polarization (FP) assay, binding to the FK506-binding domain of FKBP51. As to conditions: FK506-binding domain of FKBP51 (FKBP51FK1), competition with fluorescent ligand 2b. On the procedure: (§1) In the present invention, in vitro fluorescence polarization assays with the compounds of the general formula (I) were performed to determine the binding affinities to FKBP51 and FKBP52 or to the isolated FK506-binding domains of FKBP51 and FKBP52 ([…]). Binding to the isolated FK506-binding domains is reliably indicative of binding to the full length proteins. The affinities for the isolated FK506-binding domains and for full-length FKBP51 or FKBP52 are the same for all compounds tested so far (Kozany et al, ChemBioChem 2009, 10, 1402-1410).
(§2) Example 11: Fluorescence Polarization (FP) Assays
(§3) In-vitro fluorescence polarization assays were performed to determine the binding affinities for FKBP51 and 52 according to a literature procedure (Kozany, C.; Marz, A.; Kress, C.; Hausch, F., Fluorescent probes to characterise FK506-binding proteins. Chembiochem 2009, 10, (8), 1402-10).
(§4) For fluorescence polarization assays the fluorescent ligand 2b was dissolved in HEPES (20 mm, pH 8), Triton-X100 (0.01%), at double the concentration required for the final sample. The target protein was also diluted in this assay buffer at double the highest concentration required for the final sample. This protein stock was used for a 1:1 serial dilution.
(§5) The fluorescent ligand 2b was diluted in assay buffer to a concentration double the final concentration (20 nM 2b). The inventive compound was dissolved in DMSO to reach a 100-times concentrated stock solution. This was used for a 1:1 serial dilution in DMSO. Every sample of this serial dilution was diluted by a factor of 50 in assay buffer supplemented with ligand 2b to achieve a 2× concentrated mixture of ligand 2b and the inventive compound. To this competitive ligand double the protein concentration for 2b assay: FKBP51FK1 560 nM (2×280 nM) or FKBP52FK1 800 nM (2×400 nM) diluted in assay buffer was added.
(§6) The samples were transferred to black 384-well assay plates (No.: 3575; Corning Life Sciences). After incubation at room temperature for 30 min the fluorescence anisotropy was measured (GENios Pro, Tecan, Männedorf, Switzerland) by using an excitation filters of 485/20 nm and emission filters of 535/25 nm. The binding assays were performed in duplicates in the plate format.
(§7) The competition curves were analyzed by using SigmaPlot9. Data were fitted to a four parameter logistic curve to deduce the IC50 values. For the analysis of K1 values, data were fitted to the following equation (Z. X. Wang, FEBS Lett. 1995, 360, 111-114). A=(Amax−Amin)/[L]t×(([L]t×((2×((Klig+Kcomp+[L]t+[I]t−[R]t)^2−3×(Kcomp×([L]t−[R]t)+Klig×([I]t−[R]t)+[…]))^0.5×COS(ARCCOS((−2×(Klig+Kcomp+[L]t+[I]t−[R]t)^3+9×(Klig+Kcomp+[L]t+[I]t−[R]t)×(Kcomp×([L]t−[R]t)+Klig×([I]t−[R]t)+Klig×Kcomp)−27×(−1×Klig×Kcomp×[R]t))/(2×((((Klig+Kcomp+[L]t+[I]t−[R]t)^2−3×(Kcomp×([L]t−[R]t)+Klig×([I]t−[R]t)+Klig×Kcomp))^3)^0.5)))/3))−(Klig+Kcomp+[L]t+[I]t−[R]t)))/((3×Klig)+((2×((Klig+Kcomp+[L]t+[I]t−[R]t)^2−3×(Kcomp×([L]t−[R]t)+Klig×([I]t−[R]t)+Klig×Kcomp))^0.5×COS(ARCCOS((−2×(Klig+Kcomp+[L]t+[I]t−[R]t)^3+9×(Klig+Kcomp+[L]t+[I]t−[R]t)×(Kcomp×([L]t−[R]t)+Klig×([I]t−[R]t)+Klig×Kcomp)−27×(−1×Klig×Kcomp×[R]t))/(2×((((Klig+Kcomp+[L]t+[I]t−[R]t)^2−3×(Kcomp×([L]t−[R]t)+Klig×([I]t−[R]t)+Klig×Kcomp))^3)^0.5)))/3))−(Klig+Kcomp+[L]t+[I]t−[R]t)))+Amin
(§8) In this equation Klig and Kcomp stand for the Kd values of the used tracer or competing inhibitor, [I]t is referring to the total concentration of the titrated inhibitor.
Background: Fluorescence polarisation rises when a labelled molecule tumbles more slowly, as on binding a larger partner.

In another test the target is T2, FKBP52 (Homo sapiens, UniProt Q02790).
T2 sequence (Q02790 50-138 limits assumed): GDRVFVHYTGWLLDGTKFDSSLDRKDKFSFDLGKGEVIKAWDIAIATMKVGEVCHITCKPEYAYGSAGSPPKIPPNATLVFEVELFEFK
The test can be described thus: Fluorescence polarization (FP) assay, binding to the FK506-binding domain of FKBP52. To be noted: FK506-binding domain of FKBP52 (FKBP52FK1), competition with fluorescent ligand 2b. On the procedure: as §1, §2, §3, §4, §5, §6, §7, §8

pKi: −log10 of the molar value.

One may read the pKi as the Ki on a negative log10 scale, so that one unit is a factor of ten. The low end stands for a high Ki, the high end for a low Ki.

`C#CCN1C[C@H](COC)[C@H]2CCC[C@@H](C1=O)N2S(=O)(=O)c1cccc(C(N)=O)c1` [Compound N4, 3-(((1S,5S,6R)-5-(methoxymethyl)-2-oxo-3-(prop-2-yn-1-yl)-3,10-diazabicyclo[4.3.1]decan-10-yl)sulfonyl)benzamide]: the pKi at FKBP51 and at FKBP52 was 6.30 to 7.00 each time.

With `C#CCN1C[C@H](COC)[C@H]2CCC[C@@H](C1=O)N2S(=O)(=O)c1nc2ccccc2[nH]1` [Compound N16, (1S,5S,6R)-10-((1H-benzo[d]imidazol-2-yl)sulfonyl)-5-(methoxymethyl)-3-(prop-2-yn-1-yl)-3,10-diazabicyclo[4.3.1]decan-2-one], the pKi at FKBP51 and at FKBP52 was 6.30 to 7.00 throughout.

Take `COC[C@H]1CN(Cc2cnn[nH]2)C(=O)[C@@H]2CCC[C@H]1N2S(=O)(=O)c1cc(Br)cc(C(N)=O)c1` [Compound N20, 3-(((1S,5S,6R)-3-((1H-1,2,3-triazol-5-yl)methyl)-5-(methoxymethyl)-2-oxo-3,10-diazabicyclo[4.3.1]decan-10-yl)sulfonyl)-5-bromobenzamide]: the pKi at FKBP51 and at FKBP52 was not below 7.00 each time.

On to `C=CC1CN(CCCOC)C(=O)C2CCCC1N2S(=O)(=O)c1cc(Cl)cc(Cl)c1` (stereo in doubt) [Compound J2, (1S,5R,6R)-10-((3,5-dichlorophenyl)sulfonyl)-3-(3-methoxypropyl)-5-vinyl-3,10-diazabicyclo[4.3.1]decan-2-one], for which the pKi at FKBP51 and on FKBP52 was 6.00 to 6.30 in each case.

As to `O=C1NCCC2CCCC1N2S(=O)(=O)c1ccc2sc(=O)[nH]c2c1` (centres unmarked) [Ref. 4, reference compound], the pKi on FKBP51 and on FKBP52 was less than 5.30 throughout.

For the compound `C=CC1CN(Cc2ccccn2)C(=O)C2CCCC1N2S(=O)(=O)c1cccc(Br)c1` (stereo in doubt) [Compound K5, (1S,5R,6R)-10-((3-bromophenyl)sulfonyl)-3-(pyridin-2-ylmethyl)-5-vinyl-3,10-diazabicyclo[4.3.1]decan-2-one], the pKi on FKBP51 and on FKBP52 was not below 7.00 each time.

On to `C=CC1CN(Cc2ccccn2)C(=O)C2CCCC1N2S(=O)(=O)c1ccc2nc(C)sc2c1` (stereo in doubt) [Compound K6, (1S,5R,6R)-10-((2-methylbenzo[d]thiazol-6-yl)sulfonyl)-3-(pyridin-2-ylmethyl)-5-vinyl-3,10-diazabicyclo[4.3.1]decan-2-one], for which the pKi on FKBP51 and at FKBP52 was not below 7.00 each time.

Take `O=C1[C@@H]2CCC[C@H]([C@@H](CF)CN1Cc1ccccn1)N2S(=O)(=O)c1cc(Cl)cc(Cl)c1` [Compound M4, (1S,5S,6R)-10-((3,5-dichlorophenyl)sulfonyl)-5-(fluoromethyl)-3-(pyridin-2-ylmethyl)-3,10-diazabicyclo[4.3.1]decan-2-one]: the pKi at FKBP51 and on FKBP52 was not below 7.00 throughout.

Consider `COCCN1C[C@H](C(C)(C)O)[C@H]2CCC[C@@H](C1=O)N2S(=O)(=O)c1cc(Cl)cc(Cl)c1` [Compound B3, (1S,5S,6R)-10-((3,5-dichlorophenyl)sulfonyl)-5-(2-hydroxypropan-2-yl)-3-(2-methoxyethyl)-3,10-diazabicyclo[4.3.1]decan-2-one], for which the pKi on FKBP51 and on FKBP52 was not below 7.00 each time.

Regarding `C=C[C@@H]1CN(Cc2ccccn2)C(=O)[C@@H]2CCC[C@H]1N2S(=O)(=O)c1cc(Cl)cc(C(N)=O)c1` [Compound K19, 3-chloro-5-(((1S,5R,6R)-2-oxo-3-(pyridin-2-ylmethyl)-5-vinyl-3,10-diazabicyclo[4.3.1]decan-10-yl)sulfonyl)benzamide], the pKi at FKBP51 and at FKBP52 was 6.30 to 7.00 each time.

For `C#CCN1C[C@H](COC)[C@H]2CCC[C@@H](C1=O)N2S(=O)(=O)c1cc(Cl)cc(C(N)=O)c1` [Compound N6, 3-chloro-5-(((1S,5S,6R)-5-(methoxymethyl)-2-oxo-3-(prop-2-yn-1-yl)-3,10-diazabicyclo[4.3.1]decan-10-yl)sulfonyl)benzamide], the pKi on FKBP51 and on FKBP52 was 6.30 to 7.00 each time.

As to `O=C1NC[C@H](O)[C@H]2CCC[C@@H]1N2S(=O)(=O)c1cc(Cl)cc(Cl)c1` [Compound G6, (1S,5S,6R)-10-((3,5-dichlorophenyl)sulfonyl)-5-hydroxy-3,10-diazabicyclo[4.3.1]decan-2-one], the figures for the pKi at FKBP51 and on FKBP52 were 6.00 to 6.30 and 6.30 to 7.00, respectively.

Turning to `COc1ccc(OCCN2C[C@H](CCO)[C@H]3CCC[C@@H](C2=O)N3S(=O)(=O)c2cc(Cl)cc(Cl)c2)cc1OC` [Compound D8, (1S,5S,6R)-10-((3,5-dichlorophenyl)sulfonyl)-3-(2-(3,4-dimethoxyphenoxy)ethyl)-5-(2-hydroxyethyl)-3,10-diazabicyclo[4.3.1]decan-2-one], the pKi at FKBP51 and on FKBP52 was not below 7.00 in each case.

For the compound `C=CC1CN(CCNC)C(=O)C2CCCC1N2S(=O)(=O)c1cc(Cl)cc(Cl)c1` (stereo in doubt) [Compound J19, (1S,5R,6R)-10-((3,5-dichlorophenyl)sulfonyl)-3-(2-(methylamino)ethyl)-5-vinyl-3,10-diazabicyclo[4.3.1]decan-2-one], the pKi at FKBP51 and on FKBP52 was 6.30 to 7.00 in each case.

`COCCN1CC(COC)C2CCCC(C1=O)N2S(=O)(=O)c1cc(Cl)cc(Cl)c1` (stereo in doubt) [Compound B14, (1S,5R,6R)-10-((3,5-dichlorophenyl)sulfonyl)-3-(2-methoxyethyl)-5-(methoxymethyl)-3,10-diazabicyclo[4.3.1]decan-2-one]: the negative logarithm of the Ki (pKi) on FKBP51 is not below 7.00; at FKBP52, 6.30 to 7.00.

Turning to `O=C1[C@@H]2CCC[C@H]([C@H](CO)CN1Cc1ccccn1)N2S(=O)(=O)c1cc(Cl)cc(Cl)c1` [Compound J8, (1S,5R,6R)-10-((3,5-dichlorophenyl)sulfonyl)-5-(hydroxymethyl)-3-(pyridin-2-ylmethyl)-3,10-diazabicyclo[4.3.1]decan-2-one], the negative-log Ki (pKi) at FKBP51 and on FKBP52 was not below 7.00 each time.

Turning to `COCCN1C[C@H](C(C)O)C2CCCC(C1=O)N2S(=O)(=O)c1cc(Cl)cc(Cl)c1` (stereo in doubt) [Compound B6, (1S,5S,6R)-10-((3,5-dichlorophenyl)sulfonyl)-5-((R)-1-hydroxyethyl)-3-(2-methoxyethyl)-3,10-diazabicyclo[4.3.1]decan-2-one], the pKi at FKBP51 and at FKBP52 was not below 7.00 in each case.

For the compound `C=CC1CN(CCCOCc2ccccc2)C(=O)C2CCCC1N2S(=O)(=O)c1cc(Cl)cc(Cl)c1` (stereo in doubt) [Compound J1, (1S,5R,6R)-3-(3-(benzyloxy)propyl)-10-((3,5-dichlorophenyl)sulfonyl)-5-vinyl-3,10-diazabicyclo[4.3.1]decan-2-one], the pKi on FKBP51 and at FKBP52 was 6.30 to 7.00 throughout.

For `CCOC[C@H]1CN(Cc2ccccn2)C(=O)[C@@H]2CCC[C@H]1N2S(=O)(=O)c1cc(Cl)cc(Cl)c1` [Compound M6, (1S,5S,6R)-10-((3,5-dichlorophenyl)sulfonyl)-5-(ethoxymethyl)-3-(pyridin-2-ylmethyl)-3,10-diazabicyclo[4.3.1]decan-2-one], the pKi at FKBP51 and at FKBP52 was not below 7.00 each time.

Values taken from US9914732B2, “Diazabicyclo[4.3.1]decane derivatives for treatment of psychiatric disorders” (Max-Planck-Gesellschaft zur Forderung der Wissenschaften …, priority 2014, dated 2018).
